Columns and labels:
Phakopsora pachyrhizi = Phakopsora pachyrhizi Test on Soybean (preventive activity, greenhouse); assay type: in vivo; conditions: preventive spray on young Soybean plants, inoculated one day after treatment, rated 3, 7, 10 and 15 days after application, read-out: Efficacy (% control), disease severity compared to the untreated check
Method in brief: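 Preventive greenhouse test: young soybean plants sprayed with compound in 2% DMSO/acetone plus emulsified water at stated rates, inoculated one day later with 2×10^5 P. pachyrhizi conidia, held at 22-24° C and 80-90% RH. Disease severity (0-100%) rated 3, 7, 10 and 15 days after application; % control relative to untreated plants.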

Alternaria solani = Alternaria solani (Early Blight of Tomato/Potato): radial mycelial growth on potato dextrose agar; assay type: cell-based; conditions: 168 h, potato dextrose agar, 25° C., 60% relative humidity, seven days, read-out: control (radial growth compared to the untreated check)
Protocol: Compounds were dissolved in 0.3% dimethyl sulfoxide and then added to potato dextrose agar medium just prior to dispensing it into petri dishes. 5 mL medium with the compound in the desired concentration was dispensed into 60 mm sterile petri-plates. After solidification each plate was seeded with a 5 mm size mycelial disc taken from the periphery of an actively growing virulent culture plate. Plates were incubated in growth chambers at 25° C. temperature and 60% relative humidity for seven days and then the radial growth was measured and compared to that of the untreated control. Compounds 2 85 89 92 94 108 113 114 131 138 142 143

Pyricularia Oryzae = assay: microbe, parasite or virus in culture; assay type: cell-based; conditions: 168 h, read-out: control (radial growth compared to the untreated check)
Colletotrichum capsici = Colletotrichum capsici (Anthracnose): radial mycelial growth on potato dextrose agar; assay type: cell-based; conditions: Colletotrichum truncatum, 168 h, 25° C., 60% relative humidity, seven days, read-out: control (radial growth compared to the untreated check)

SMILES	pest or weed control at 500 ppm (Phakopsora pachyrhizi) [%]	inhibition of growth at 300 ppm (Alternaria solani) [%]	inhibition of growth at 300 ppm (Pyricularia Oryzae) [%]	inhibition of growth at 300 ppm (Colletotrichum capsici) [%]
COc1ccc(NC(=O)c2cn3ccc(-c4noc(C(F)(F)F)n4)cc3n2)cc1 [Compound 2, N-(4-methoxyphenyl)-7-(5-(trifluoromethyl)-1,2,4-oxadiazol-3-yl)imidazo[1,2-a]pyridine-2-carboxamide]	≥ 70	≥ 70		
CN(C(=O)c1cn2ccc(-c3noc(C(F)(F)F)n3)cc2n1)c1ccc(Cl)cc1 [Compound 12, N-(4-chlorophenyl)-N-methyl-7-(5-(trifluoromethyl)-1,2,4-oxadiazol-3-yl)imidazo[1,2-a]pyridine-2-carboxamide]	≥ 70		≥ 70	
O=C(c1cn2ccc(-c3noc(C(F)(F)F)n3)cc2n1)N1CCC1 [Compound 33, azetidin-1-yl(7-(5-(trifluoromethyl)-1,2,4-oxadiazol-3-yl)imidazo[1,2-a]pyridin-2-yl)methanone]	≥ 70		≥ 70	
COc1cccc(SCc2cn3ccc(-c4noc(C(F)(F)F)n4)cc3n2)c1 [Compound 46, 3-(2-(((3-methoxyphenyl)thio)methyl)imidazo[1,2-a]pyridin-7-yl)-5-(trifluoromethyl)-1,2,4-oxadiazole]	≥ 70			≥ 70
FC(F)(F)c1nc(-c2ccn3cc(CSc4ccccc4)nc3c2)no1 [Compound 50, 3-(2-((phenylthio)methyl)imidazo[1,2-a]pyridin-7-yl)-5-(trifluoromethyl)-1,2,4-oxadiazole]				≥ 70
O=C(NCc1cn2cc(-c3noc(C(F)(F)F)n3)ccc2n1)c1cccc(Cl)c1 [Compound 85, 3-chloro-N-((6-(5-(trifluoromethyl)-1,2,4-oxadiazol-3-yl)imidazo[1,2-a]pyridin-2-yl)methyl)benzamide]	≥ 70	≥ 70		
O=C(NCc1cn2cc(-c3noc(C(F)(F)F)n3)ccc2n1)c1ccccn1 [Compound 87, N-((6-(5-(trifluoromethyl)-1,2,4-oxadiazol-3-yl)imidazo[1,2-a]pyridin-2-yl)methyl)picolinamide]	≥ 70		≥ 70	
O=C(NCc1cn2cc(-c3noc(C(F)(F)F)n3)ccc2n1)c1ccc(OC(F)(F)F)cc1 [Compound 89, 4-(trifluoromethoxy)-N-((6-(5-(trifluoromethyl)-1,2,4-oxadiazol-3-yl)imidazo[1,2-a]pyridin-2-yl)methyl)benzamide]	≥ 70	≥ 70		
O=C(NCc1cn2cc(-c3noc(C(F)(F)F)n3)ccc2n1)c1cocn1 [Compound 92, N-((6-(5-(trifluoromethyl)-1,2,4-oxadiazol-3-yl)imidazo[1,2-a]pyridin-2-yl)methyl)oxazole-4-carboxamide]		≥ 70	≥ 70	
O=C(Cc1ccccc1)NCc1cn2cc(-c3noc(C(F)(F)F)n3)ccc2n1 [Compound 94, 2-phenyl-N-((6-(5-(trifluoromethyl)-1,2,4-oxadiazol-3-yl)imidazo[1,2-a]pyridin-2-yl)methyl)acetamide]	≥ 70	≥ 70		
FC(F)(F)c1nc(-c2ccc3nc(CSc4cccc(Cl)c4)cn3c2)no1 [Compound 103, 3-(2-(((3-chlorophenyl)thio)methyl)imidazo[1,2-a]pyridin-6-yl)-5-(trifluoromethyl)-1,2,4-oxadiazole]	≥ 70		≥ 70	
FC(F)(F)c1nc(-c2ccc3nc(CSCc4ccccc4)cn3c2)no1 [Compound 108, 3-(2-((benzylthio)methyl)imidazo[1,2-a]pyridin-6-yl)-5-(trifluoromethyl)-1,2,4-oxadiazole]		≥ 70		
FC(F)(F)c1nc(-c2ccc3nc(CSC4CCCC4)cn3c2)no1 [Compound 113, 3-(2-((cyclopentylthio)methyl)imidazo[1,2-a]pyridin-6-yl)-5-(trifluoromethyl)-1,2,4-oxadiazole]		≥ 70	≥ 70	
FC(F)(F)c1nc(-c2ccc3nc(CSC4CCCCC4)cn3c2)no1 [Compound 114, 3-(2-((cyclohexylthio)methyl)imidazo[1,2-a]pyridin-6-yl)-5-(trifluoromethyl)-1,2,4-oxadiazole]		≥ 70	≥ 70	
O=S(=O)(Cc1cn2cc(-c3noc(C(F)(F)F)n3)ccc2n1)c1ccc(Cl)c(Cl)c1 [Compound 117, 3-(2-(((3,4-dichlorophenyl)sulfonyl)methyl)imidazo[1,2-a]pyridin-6-yl)-5-(trifluoromethyl)-1,2,4-oxadiazole]				≥ 70
CS(=O)(=NC(=O)Cc1cn2cc(-c3noc(C(F)(F)F)n3)ccc2n1)c1cccc(F)c1 (stereo not drawn) [Compound 131, N-((3-fluorophenyl)(methyl)(oxo)-λ^6-sulfaneylidene)-2-(6-(5-(trifluoromethyl)-1,2,4-oxadiazol-3-yl)imidazo[1,2-a]pyridin-2-yl)acetamide]		≥ 70		
COCCS(=O)(=NC(=O)Cc1cn2cc(-c3noc(C(F)(F)F)n3)ccc2n1)c1ccc(Cl)cc1 (stereo not drawn) [Compound 136, N-((4-chlorophenyl)(2-methoxyethyl)(oxo)-λ^6-sulfaneylidene)-2-(6-(5-(trifluoromethyl)-1,2,4-oxadiazol-3-yl)imidazo[1,2-a]pyridin-2-yl)acetamide]			≥ 70	
COc1ccc(S(C)(=O)=NC(=O)Cc2cn3cc(-c4noc(C(F)(F)F)n4)ccc3n2)cc1 (stereo not drawn) [Compound 138, N-((4-methoxyphenyl)(methyl)(oxo)-λ^6-sulfaneylidene)-2-(6-(5-(trifluoromethyl)-1,2,4-oxadiazol-3-yl)imidazo[1,2-a]pyridin-2-yl)acetamide]		≥ 70	≥ 70	
CS(=O)(=NC(=O)Cc1cn2cc(-c3noc(C(F)(F)F)n3)ccc2n1)c1cc(Cl)cc(Cl)c1 (stereo not drawn) [Compound 140, N-((3,5-dichlorophenyl)(methyl)(oxo)-λ^6-sulfaneylidene)-2-(6-(5-(trifluoromethyl)-1,2,4-oxadiazol-3-yl)imidazo[1,2-a]pyridin-2-yl)acetamide]			≥ 70	
CS(=O)(=NC(=O)Cc1cn2cc(-c3noc(C(F)(F)F)n3)ccc2n1)c1ccc(Br)cc1 (stereo not drawn) [Compound 142, N-((4-bromophenyl)(methyl)(oxo)-λ^6-sulfaneylidene)-2-(6-(5-(trifluoromethyl)-1,2,4-oxadiazol-3-yl)imidazo[1,2-a]pyridin-2-yl)acetamide]		≥ 70	≥ 70	
CS(=O)(=NC(=O)Cc1cn2cc(-c3noc(C(F)(F)F)n3)ccc2n1)c1ccc(Cl)c(Cl)c1 (stereo not drawn) [Compound 143, N-((3,4-dichlorophenyl)(methyl)(oxo)-λ^6-sulfaneylidene)-2-(6-(5-(trifluoromethyl)-1,2,4-oxadiazol-3-yl)imidazo[1,2-a]pyridin-2-yl)acetamide]		≥ 70		
COc1ccnc(S(C)(=O)=NC(=O)Cc2cn3cc(-c4noc(C(F)(F)F)n4)ccc3n2)c1 (stereo not drawn) [Compound 146, N-((4-methoxypyridin-2-yl)(methyl)(oxo)-λ^6-sulfaneylidene)-2-(6-(5-(trifluoromethyl)-1,2,4-oxadiazol-3-yl)imidazo[1,2-a]pyridin-2-yl)acetamide]		≥ 70	≥ 70	
Cc1ccccc1S(C)(=O)=NC(=O)Cc1cn2cc(-c3noc(C(F)(F)F)n3)ccc2n1 (stereo not drawn) [Compound 148, N-(methyl(oxo)(o-tolyl)-λ^6-sulfaneylidene)-2-(6-(5-(trifluoromethyl)-1,2,4-oxadiazol-3-yl)imidazo[1,2-a]pyridin-2-yl)acetamide]		≥ 70		
CS(=O)(=NC(=O)Cc1cn2cc(-c3noc(C(F)(F)F)n3)ccc2n1)c1cccc(Cl)c1 (stereo not drawn) [Compound 149, N-((3-chlorophenyl)(methyl)(oxo)-λ^6-sulfaneylidene)-2-(6-(5-(trifluoromethyl)-1,2,4-oxadiazol-3-yl)imidazo[1,2-a]pyridin-2-yl)acetamide]		≥ 70		
CS(=O)(Cc1cn2ccc(-c3noc(C(F)(F)F)n3)cc2n1)=NC(=O)c1ccccc1C(F)(F)F (stereo not drawn) [Compound 161, N-(methyl(oxo)((7-(5-(trifluoromethyl)-1,2,4-oxadiazol-3-yl)imidazo[1,2-a]pyridin-2-yl)methyl)-λ^6-sulfanylidene)-2-(trifluoromethyl)benzamide]			≥ 70	
COc1ccc(S(=N)(=O)Cc2cn3ccc(-c4noc(C(F)(F)F)n4)cc3n2)cc1 (stereo not drawn) [Compound 165, imino(4-methoxyphenyl)((7-(5-(trifluoromethyl)-1,2,4-oxadiazol-3-yl)imidazo[1,2-a]pyridin-2-yl)methyl)-λ^6-sulfanone]	≥ 70			
N=S(=O)(Cc1cn2ccc(-c3noc(C(F)(F)F)n3)cc2n1)c1ccc(Cl)cc1 (stereo not drawn) [Compound 166, (4-chlorophenyl)(imino)((7-(5-(trifluoromethyl)-1,2,4-oxadiazol-3-yl)imidazo[1,2-a]pyridin-2-yl)methyl)-λ^6-sulfanone]	≥ 70			
